Common to all, as to format: in vivo
Holding throughout (conditions): after 13 days

Test [1] deals with Abutilon theophrasti (ABUTH). Briefly: Glasshouse herbicide test, sprayed 1 day after sowing, visual percentage phytotoxicity, Colby synergy. On the procedure: (§1) Seeds of Amaranthus retroflexus (AMARE), Echinochloa crus-galli (ECHCG), Digitaria sanguinalis (DIGSA), Lolium perenne (LOLPE), Alopecurus myosuroides (ALOMY), Chenopodium album (CHEAL), Setaria faberi(SETFA), Abutilon theophrasti(ABUTH), Setaria viridis (SETVI) and Ipomoea hederacea (IPOHE) were sown in standard sterilised soil in pots. After cultivation for 1 day under controlled conditions in a glasshouse (at 24/16° C., day/night; 14 hours light; 65% humidity), the plants were sprayed at 500 l/Ha with an aqueous spray solution derived from the formulation of the technical active ingredients in a small amount of acetone and a solvent and emulsifier mixture referred to as IF50 (11.12% Emulsogen EL360 TM+44.44% N-methylpyrrolidone+44.44% Dowanol DPM glycol ether), to create a 50 g/l solution which was then diluted using 0.2% Genapol X080 (CAS Number: 9043-30-5) as diluent to give the desired final dose of test compound. Where active ingredients were applied as mixtures, aqueous spray solutions were prepared as above, containing both active ingredients. The test plants were then grown under controlled conditions in a glasshouse (at 24/16° C., day/night; 14 hours light; 65% humidity) and watered twice daily. After 13 days, the test was evaluated visually for percentage phytotoxicity to the plants (where 100=total damage to plant; 0=no damage to plant) when compared to control untreated plants. Two to four replicates were applied for each treatment in a randomised block test design.
(§2) 22., E=X+Y−(X*Y/100), where • X=average percent phytotoxicity of herbicide A when applied at a certain rate • Y=average percent phytotoxicity using herbicide B when applied at a certain rate • E=the expected effect of the mixture of herbicides A and B as calculated from the Colby formula.

Test [2] deals with Alopecurus myosuroides (ALOMY). The description is as above. As for the experimental part: as §1, §2
For test [3], the system named is Ipomoea hederacea (IPOHE). The description is as above. On the procedure:
as §1, §2

A further test relates to Setaria faberi (SETFA). The description is as above. On the procedure:
as §1, §2

Test [4] has as its system Digitaria sanguinalis (DIGSA). Described as above. As for the experimental part: as §1, §2
Test [5] concerns Amaranthus retroflexus (AMARE). The test is described as above. As for the experimental part:
as §1, §2

Test [6] deals with Echinochloa crus-galli (ECHCG). The description is as above. On the procedure:
as §1, §2

The subject of test [7] is Chenopodium album (CHEAL). The test is described as above. On the procedure:
as §1, §2

Test [8] in a line: Glasshouse herbicide test, first A + B-20 table, weed species not given. As for the experimental part: as §1, §2
The next test concerns Setaria viridis (SETVI). Nature of the test: Glasshouse herbicide test, sprayed 1 day after sowing, visual percentage phytotoxicity, Colby synergy. On the procedure:
as §1, §2

The subject of another test is Lolium perenne (LOLPE). The test is described as above. As for the experimental part: as §1, §2

Molecules are shown by their SMILES. “And” between values parts separate entries of the source, which are not always exact repeats. Identical values can stand only once.

Take `CS(=O)(=O)c1ccc(C(=O)C2C(=O)CCCC2=O)c([N+](=O)[O-])c1` [Compound B-4]: the “Observed (percentage phytotoxicity)” value is listed as 78% in test [1] (3.91 g/ha); 0% in test [2] (3.91 g/ha); 3% in test [2] (7.81 g/ha); 10% in test [3] (3.91 g/ha); 5% in the test with Setaria faberi (SETFA) (3.91 g/ha); 3% in the test on Setaria faberi (SETFA) (7.81 g/ha). Further, the “Observed (percentage phytotoxicity)” value with Setaria faberi (SETFA) (15.63 g/ha) was 8%; in test [4] (3.91 g/ha), 70%; in test [5] (3.91 g/ha), 53%; in test [5] (7.81 g/ha), 85%; in test [5] (15.63 g/ha), 85%; in test [5] (31.25 g/ha), 85%. Besides, in [6] (3.91 g/ha), the “Observed (percentage phytotoxicity)” value is reported as 5%.
As to `O=C(Nc1ccc(F)cc1F)c1cccnc1Oc1cccc(C(F)(F)F)c1` [Compound B-20], the “Observed (percentage phytotoxicity)” value in [1] (3.91 g/ha) was determined as 8%; in test [1] (15.63 g/ha), 20%; in test [1] (31.25 g/ha) it was 18%; in test [3] (31.25 g/ha) it was 5%; in [4] (31.25 g/ha) it was 68%; in test [6] (15.63 g/ha) it was 10%. The results for the “Observed (percentage phytotoxicity)” value in test [7] (15.63 g/ha), in test [8] (15.63 g/ha) and in test [8] (31.25 g/ha) were 8%, 23% and 23%, respectively.
On to `CCCN(CCC)C(=O)SCc1ccccc1` [Compound B-7], for which the “Observed (percentage phytotoxicity)” value came to 5% in the test on Setaria viridis (SETVI) (31.25 g/ha); 8% in the test on Setaria viridis (SETVI) (125 g/ha); 10% in the test on Lolium perenne (LOLPE) (62.5 g/ha); 8% in the test on Lolium perenne (LOLPE) (125 g/ha); 10% in the test on Lolium perenne (LOLPE) (250 g/ha); 8% in [1] (62.5 g/ha). Besides, the “Observed (percentage phytotoxicity)” value was found to be 15% in [1] (125 g/ha); 15% in test [2] (125 g/ha); 10% in [2] (250 g/ha); 10% in test [3] (31.25 g/ha); 5% in test [3] (62.5 g/ha); 8% in [3] (125 g/ha). The “Observed (percentage phytotoxicity)” value in test [3] (250 g/ha) was determined as 20%; in test [4] (62.5 g/ha), 13%; in test [4] (125 g/ha), 3%; in [5] (62.5 g/ha) it was 48%; in test [5] (250 g/ha), 45%; in [7] (62.5 g/ha) it was 9%. Moreover, the “Observed (percentage phytotoxicity)” value in test [7] (125 g/ha) and in test [7] (250 g/ha) was 15% each time.
Consider `CC(C)N(C(=O)COc1nnc(C(F)(F)F)s1)c1ccc(F)cc1` [Compound B-16], for which the “Observed (percentage phytotoxicity)” value in the test on Lolium perenne (LOLPE) (3.91 g/ha) came to 45%; in test [1] (15.63 g/ha) it was 23%; in [3] (3.91 g/ha) it was 5%; in [3] (7.81 g/ha), 8%; in test [5] (31.25 g/ha), 70%; in test [7] (15.63 g/ha) it was 48%.
On to `Cn1nc(C(F)(F)F)c(CS(=O)(=O)C2=NOC(C)(C)C2)c1OC(F)F` [Compound B-9], for which the “Observed (percentage phytotoxicity)” value in the test on Lolium perenne (LOLPE) (1.95 g/ha) was 14%; with Lolium perenne (LOLPE) (3.91 g/ha), 40%; in the test with Lolium perenne (LOLPE) (7.81 g/ha), 44%; in the test on Lolium perenne (LOLPE) (15.63 g/ha) it was 48%; in the test with Lolium perenne (LOLPE) (31.25 g/ha), 66%; in [1] (3.91 g/ha), 40%. In addition, the “Observed (percentage phytotoxicity)” value in test [1] (7.81 g/ha) is 55%; in test [3] (7.81 g/ha), 53%; in [3] (15.63 g/ha), 73%; in test [4] (1.95 g/ha) it was 13%; in test [4] (3.91 g/ha), 43%; in test [4] (7.81 g/ha), 65%. For the same molecule, in [5] (1.95 g/ha), the “Observed (percentage phytotoxicity)” value is 40%.
`CC1(C)CON(Cc2ccc(Cl)cc2Br)C1=O` [A]: the “Observed (percentage phytotoxicity)” value is 10% in the test on Setaria viridis (SETVI) (7.81 g/ha); 26% in the test on Setaria viridis (SETVI) (15.63 g/ha); 8% in the test on Lolium perenne (LOLPE) (3.91 g/ha); 13% with Lolium perenne (LOLPE) (7.81 g/ha); 13% in the test with Lolium perenne (LOLPE) (15.63 g/ha); 35% and 18% with Lolium perenne (LOLPE) (31.25 g/ha). The “Observed (percentage phytotoxicity)” value in the test with Lolium perenne (LOLPE) (62.5 g/ha) is 43% and 30%; in test [1] (7.81 g/ha), 6%; in test [1] (31.25 g/ha) it was 5% and 11%; in [1] (125 g/ha), 31%; in [2] (7.81 g/ha), 5%; in test [2] (15.63 g/ha), 10%. Further, the “Observed (percentage phytotoxicity)” value in test [2] (31.25 g/ha) was 21% and 16%; in test [2] (62.5 g/ha), 40%; in test [2] (125 g/ha), 68%; in [3] (7.81 g/ha) it was 1% and 0%; in test [3] (15.63 g/ha) it was 0% and 5%; in test [3] (31.25 g/ha), 1%. Also, the “Observed (percentage phytotoxicity)” value in test [3] (62.5 g/ha) came to 1%; in the test on Setaria faberi (SETFA) (7.81 g/ha) it was 13%; in the test with Setaria faberi (SETFA) (15.63 g/ha), 11%; in the test with Setaria faberi (SETFA) (31.25 g/ha) it was 41%; in test [4] (3.91 g/ha), 4%; in [4] (7.81 g/ha) it was 3%. Further, the “Observed (percentage phytotoxicity)” value in [4] (15.63 g/ha) is 5%; in [4] (31.25 g/ha), 11%; in test [4] (62.5 g/ha), 68%; in [5] (3.91 g/ha) it was 11%; in test [5] (31.25 g/ha), 21%; in test [5] (62.5 g/ha), 31% and 50%. Besides, the “Observed (percentage phytotoxicity)” value in test [5] (125 g/ha) is 74%; in test [6] (7.81 g/ha), 25% and 34%; in [6] (15.63 g/ha), 48%; in test [7] (15.63 g/ha), 21%; in test [8] (15.63 g/ha), 10%; in [8] (31.25 g/ha) it was 21%.
